Measurements published in patent publication US11014896B2, “TRPA1 and TRPV4 inhibitors and methods of using the same for organ-specific inflammation and itch” (Duke University, priority 2014, dated 2021).
Entries after “also recorded” stand apart in the source; their conditions may differ.

Tests used:
human TRPV2 = biological target: T1, human TRPV2 (Homo sapiens, UniProt Q9Y5S1); experiment: Ca2+ signal in N2a cells transfected with human TRPV2; assay type: cell-based; settings: stimulation with hypotonicity (260 mosmol/L)
T1 construct: expressed in transfected cells; host or cells: N2a cells
T1 sequence (Q9Y5S1 1-764): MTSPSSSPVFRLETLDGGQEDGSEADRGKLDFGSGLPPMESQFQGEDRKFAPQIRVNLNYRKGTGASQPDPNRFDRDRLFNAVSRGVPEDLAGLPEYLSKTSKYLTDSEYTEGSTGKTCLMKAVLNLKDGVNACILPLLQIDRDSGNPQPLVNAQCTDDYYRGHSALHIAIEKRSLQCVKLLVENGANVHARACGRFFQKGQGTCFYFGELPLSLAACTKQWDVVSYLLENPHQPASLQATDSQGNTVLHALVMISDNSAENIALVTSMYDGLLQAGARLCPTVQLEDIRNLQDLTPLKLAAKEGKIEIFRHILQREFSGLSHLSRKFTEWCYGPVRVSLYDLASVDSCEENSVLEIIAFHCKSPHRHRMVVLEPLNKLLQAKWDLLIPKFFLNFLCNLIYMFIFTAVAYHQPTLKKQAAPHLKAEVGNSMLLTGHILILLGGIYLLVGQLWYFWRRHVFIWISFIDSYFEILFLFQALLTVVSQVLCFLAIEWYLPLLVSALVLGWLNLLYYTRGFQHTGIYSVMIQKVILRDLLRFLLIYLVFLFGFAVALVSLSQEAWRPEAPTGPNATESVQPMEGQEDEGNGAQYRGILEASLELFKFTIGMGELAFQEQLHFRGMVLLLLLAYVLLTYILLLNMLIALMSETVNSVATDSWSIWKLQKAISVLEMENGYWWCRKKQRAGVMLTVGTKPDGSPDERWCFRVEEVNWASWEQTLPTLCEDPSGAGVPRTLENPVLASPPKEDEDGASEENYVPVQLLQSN
Protocol: Compounds were tested for their effect on TRPV1, TRPV2, and TRPV3. Methods were similar to those described in Example 15. Briefly, N2a cells were transfected with human TRPV1, TRPV2, or TRPV3. eGFP-transfection was used as control. For specific stimulation of TRPV1, 5 μM capsaicin was used. For stimulation of TRPV2, hypotonicity (260 mosmol/L) was used, based on previous reports of TRPV2 being osmotically responsive. N2a cells were not responsive to hypotonicity, and neither were control-transfected cells. For TRPV3-expressing cells, camphor (20% of a commercially available stock solution) was used. […] Stimulation and control protocols were applied as for TRPA1-expressing N2a cells as detailed above in Example 15.

[1] = UVB permeation of paw-pad skin (sunscreen test); design: species or system mouse; settings: topically applied; GSK205 5 mM
Protocol: The UV LED was powered with 20 mA of current, resulting in 500 μW of optical power in a circular focal spot 1.5 mm in diameter, with 70% of the total flux in a 0.5 mm beam radius. The UV optical power transmitted through the sample was detected by a Hamamatsu 5127-66BR UV detector, and the output of the photodetector was measured using a Keithley 236 source measure unit. Next, the foot-pad epidermis of a mouse was measured for UV transmission by placing it on a quartz coverslip and exposure to the UV beam. The vehicle-control group was treated with the alcohol and glycerol solution only. Another control group consisted of a commercially-available SPF100 preparation sunscreen in form of a cream, which was applied similar to the vehicle-control. The data for the GSK205 and sunscreen was normalized to this control data.

ET1/Edn1 = experiment: Edn1 mRNA (qPCR) in UVB-exposed paw-pad epidermis after topical treatment; assay type: in vivo, mouse; settings: 5 mM GSK205 topical; 2 hour and 24 hour time-points
Protocol: (§1) GSK205 topical treatment: A viscous solution of 68% EtOH/5% glycerol plus 1 mM or 5 mM GSK205 (none for control) was applied to hindpaws by rubbing in 20 μL, applied at time-points 1 hour and again 10 min before UV exposure.

IL-6 = experiment: Keratinocyte IL-6 expression in UVB-exposed footpad after topical treatment; assay type: in vivo, mouse; settings: 5 mM GSK205 topical
Protocol: as §1
Routine procedures were followed as described previously (Chen et al., 2009). Mice were perfused transcardially with 30 mL PBS, followed by 30 mL 4% paraformaldehyde. Tissues, including the L5 DRGs (bilateral), and footpad preparations, were dissected and post-fixed in 4% paraformaldehyde. Tissue blocks were further cryoprotected in 30% sucrose in PBS for 24-48 hours. For mouse TRPV4, keratin-specific antibodies, phospho-ERK, IL-6, IL-1β, CXCL5 and caspase-1, tissue was prepared as frozen blocks and subsequently sectioned on a cryostat. For CD68, CD15 (neutrophil elastase) and CD3, mouse skin was prepared by 2% PFA perfusion. […]

SMILES	Ca2+ transience on TRPV2 stimulation (human TRPV2)	UVB permeation of paw-pad skin vs. vehicle control [1]	Edn1 mRNA expression after UVB (ET1/Edn1)	keratinocyte expression of IL-6 in UVB-exposed footpad (IL-6)
CN(CCc1ccc(Nc2nc(-c3ccccc3)cs2)cc1)Cc1ccccc1 [Compound 16-8]	not affected	–	–	–
CN(CCc1ccc(Nc2nc(-c3cccnc3)cs2)cc1)Cc1ccccc1 [GSK205]	–	equal UVB permeation; also recorded: absence of a change	unchanged; also recorded: complete lack of this regulation	Comparably significant blocks; also recorded: attenuates keratinocyte expression of IL-6
